In brackets after ≈: the same amount, converted by molar mass. Several values for one entry are separate records, joined by “and”; a condition that tells them apart may be missing. Equal values may be shown once. Read-outs that look alike come from different tables or passages of the source.
Experiments:
P. falciparum strain 3D7 = experiment: Proliferation of intraerythrocytic P. falciparum 3D7 (SYBR Green, 72 h); assay type: cell-based, Plasmodium falciparum; conditions: chloroquine sensitive strain 3D7, 72 h, read-out: Pf 3D7 EC50
Experimental: Two P. falciparum strains were used in this study and were provided by the MR4 Unit of the American Type Culture Collection (ATCC, Manassas, VA). Those two strains were the chloroquine sensitive strain 3D7 and the K1 strain that is resistant to chloroquine, pyrimethamine, and sulfadoxine.
Asynchronous parasites were maintained in culture based on the method of Trager. Parasites were grown in presence of fresh group O-positive erythrocytes (Key Biologics, LLC) in Petri dishes at a hematocrit of 4–6% in RPMI based media (RPMI 1640 supplemented with 0.5% AlbuMAX II, 25 mM HEPES, 25 mM NaHCO3 (pH 7.3), 100 μg/mL hypoxanthine, and 5 μg/mL gentamycin). Cultures were incubated at 37°C in a gas mixture of 90% N2, 5% O2, 5% CO2. For EC50 determinations, 20 μL of RPMI 1640 with 5 μg/mL gentamycin were dispensed per well in an assay plate (Corning 384-well microtiter plate, clear bottom, tissue culture treated, catalog no. 8807BC). 40 nL of compound, previously serially diluted in a separate 384-well white polypropylene plate (Corning, catalog no. 8748BC), was dispensed to the assay plate by hydrodynamic pin transfer (FP1S50H, V&P Scientific Pin Head) and then 20 μL of a synchronized culture suspension (1% rings, 4% hematocrit) was added to each well, thus making a final hematocrit and parasitemia of 2% and 1%, respectively. Assay plates were incubated for 72 h, and the parasitemia was determined by a method previously described: Briefly, 10 μL of the assay solution in PBS (10X SYBR Green I, 0.5% v/v triton X-100, 0.5 mg/mL saponin) was added to each well. Assay plates were shaken for 1 min, incubated in the dark for 90 min, and read with an Envision (Perkin Elmer) spectrophotometer at Ex/Em of 485 nm/535 nm. EC50s were calculated with a custom program (RISE, Robust Investigation of Screening Experiments) using a four-parameter logistic equation.

Solubility assay = assay type: physicochemical; conditions: PBS buffer, aqueous buffer, kinetic from dmso stock, PBS pH 7.4, room temperature
Experimental: Next, 5 μL of this reference stock plate was mixed with 70 μL of 1-propanol and 75 μL of PBS (pH 7.4) to make the reference plate, and the UV spectrum (250–500 nm) of the reference plate was read. Then, 6 μL of 10 mM test compound stock was added to 600 μL of PBS, pH 7.4, in a 96-well storage plate and mixed. The storage plate was sealed and incubated at room temperature for 18 h. The suspension was then filtered through a 96-well filter plate (pION Inc.). Next, 75 μL of filtrate was mixed with 75 μL of 1-propanol to make the sample plate, and the UV spectrum of the sample plate was read. Calculations were done using μSOL Evolution software based on the area under the curve (AUC) of the UV spectrum of the sample plate and the reference plate. All compounds were tested in triplicate.

[1] = Parallel artificial membrane permeability assay (PAMPA); conditions: for Permeation: pH 7.4; for Retention: retention in artificial membrane
Experimental: A parallel artificial membrane permeability assay (PAMPA) was conducted on a Biomek FX lab automation workstation (Beckman Coulter, Inc.) with PAMPA evolution 96 command software (pION Inc.) as follows: 3 μL of 10 mM test compound stock was mixed with 600 μL of PBS (pH 7.4) to make diluted test compound. Then 150 μL of diluted test compound was transferred to a UV plate (pION Inc.), and the UV spectrum was read as the reference plate. The membrane on a preloaded PAMPA sandwich (pION Inc.) was painted with 4 μL of GIT lipid (pION Inc.). The acceptor chamber was then filled with 200 μL of acceptor solution buffer (pION Inc.), and the donor chamber was filled with 180 μL of diluted test compound. The PAMPA sandwich was assembled, placed on the Gut-Box controlled environment chamber and stirred for 30 min. The aqueous boundary layer was set to 40 μm for stirring. The UV spectrum (250–500 nm) of the donor and the acceptor were read. The permeability coefficient was calculated using PAMPA Evolution 96 Command software (pION Inc.) based on the AUC of the reference plate, the donor plate, and the acceptor plate. All compounds were tested in triplicate.

PfHT = PfHT (Plasmodium falciparum, UniProt Q7KWJ5); experiment: Uptake of [3H] D-glucose by L. mexicana Δlmxgt1-3 null mutants expressing PfHT; assay type: cell-based; set-up: expressed in transfected cells; host or cells: Leishmania mexicana promastigotes, Δlmxgt1-3 hexose transporter null mutant; conditions: for Ki: linear regression; for Vmax: glucose uptake by PfHT; for mode of inhibition of glucose uptake through PfHT: substrate saturation curves, one-way ANOVA of Vmax and Km; for SIglucose GLUT1/PfHT (Specificity Index, IC50 for GLUT1/IC50 for PfHT): uptake of 100 μM [3H] D-glucose
Sequence of PfHT (Q7KWJ5 whole entry): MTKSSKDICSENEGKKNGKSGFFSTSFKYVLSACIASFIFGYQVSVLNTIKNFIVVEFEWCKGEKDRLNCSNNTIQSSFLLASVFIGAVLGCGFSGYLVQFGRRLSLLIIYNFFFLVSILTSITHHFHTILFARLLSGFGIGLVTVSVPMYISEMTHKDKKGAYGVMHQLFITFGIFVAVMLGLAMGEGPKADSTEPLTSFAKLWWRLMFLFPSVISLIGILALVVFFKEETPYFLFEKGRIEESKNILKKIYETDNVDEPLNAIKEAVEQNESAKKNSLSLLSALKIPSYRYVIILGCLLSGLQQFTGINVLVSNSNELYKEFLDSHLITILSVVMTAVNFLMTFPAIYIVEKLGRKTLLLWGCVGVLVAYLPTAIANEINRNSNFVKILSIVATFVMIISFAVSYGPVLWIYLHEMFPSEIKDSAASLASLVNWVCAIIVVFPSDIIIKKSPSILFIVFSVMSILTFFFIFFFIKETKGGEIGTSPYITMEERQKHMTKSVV
Experimental: (§1) Glucose uptake assays employed logarithmic phase L. mexicana promastigotes of the Δlmxgt1-3 hexose transporter null mutant strain expressing either PfHT or GLUT1 from an episomal expression vector [17]. Parasites (1x10^7) were resuspended in 100 μL phosphate buffered saline, pH 7.4. Prior to uptake, parasites were pre-incubated for 5 min with inhibitor, and uptake was initiated by adding 100 μL of 200 μM [^3H] D-glucose diluted to 4.0 μCi/mL. Uptake was terminated, typically after 1 min, by centrifuging the parasites through a layer of dibutyl phthalate, as described. Control uptake assays employing [^3H] hypoxanthine, [^3H] uridine, and [^3H] L-proline were performed similarly. Analysis of kinetic data was performed using Graph Pad Prism 4.0b software (Graph Pad).

human GLUT1 = target: T1, human GLUT1 (Homo sapiens, UniProt P11166); experiment: Uptake of [3H] D-glucose by L. mexicana Δlmxgt1-3 null mutants expressing GLUT1; assay type: cell-based; set-up: expressed in transfected cells; host or cells: Leishmania mexicana promastigotes, Δlmxgt1-3 hexose transporter null mutant; conditions: inhibition of uptake of 100 μM [3H] D-glucose, 1 min uptake assay
T1 sequence (P11166 1-492): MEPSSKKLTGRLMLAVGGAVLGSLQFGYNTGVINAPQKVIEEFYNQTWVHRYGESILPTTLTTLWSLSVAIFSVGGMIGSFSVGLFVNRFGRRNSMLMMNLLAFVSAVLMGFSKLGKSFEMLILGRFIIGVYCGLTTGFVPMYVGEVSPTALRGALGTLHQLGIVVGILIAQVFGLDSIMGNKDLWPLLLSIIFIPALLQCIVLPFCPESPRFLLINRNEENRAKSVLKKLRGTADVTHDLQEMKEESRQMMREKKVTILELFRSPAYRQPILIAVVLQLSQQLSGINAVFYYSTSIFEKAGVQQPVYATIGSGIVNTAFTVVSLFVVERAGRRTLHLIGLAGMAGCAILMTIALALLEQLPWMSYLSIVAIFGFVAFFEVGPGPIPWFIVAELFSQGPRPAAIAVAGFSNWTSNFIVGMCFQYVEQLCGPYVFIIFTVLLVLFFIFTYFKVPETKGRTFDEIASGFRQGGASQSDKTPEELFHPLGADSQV
Experimental: as §1

[2] = Plasmodium falciparum, 3D7, 72 h
[3] = Kic (Ki for binding of inhibitor to free transporter), from plot of Km/Vmax versus [I]
[4] = Kiu (Ki for binding of inhibitor to substrate-bound transporter), from plot of 1/Vmax versus [I]

SMILES	EC50 (P. falciparum strain 3D7; [2]) [nM]	EC50 (P. falciparum strain 3D7) [nM]	solubility at 18 h (Solubility assay) [µM]	Permeation [1]	Retention [1] [%]	IC50 (PfHT; read-out: IC50 PfHT, inhibition of uptake of 100 μM [3H] D-glucose, 1 min uptake assay) [nM]	IC50 (human GLUT1)	IC50 (PfHT) [nM]	lower affinity for PfHT than Compound 1 (PfHT) [fold]	selective inhibition of PfHT versus GLUT1 (PfHT) [fold]	Ki (PfHT; [3]) [nM]	Ki (PfHT; [4]) [nM]	Vmax (PfHT; [I] 600 nM)	Vmax (PfHT; [I] 1000 nM)	mode of inhibition of glucose uptake through PfHT (PfHT)	SIglucose GLUT1/PfHT (Specificity Index, IC50 for GLUT1/IC50 for PfHT) (PfHT)	Vmax (PfHT; [I] 50 nM)	Vmax (PfHT; [I] 100 nM)
CC1CCCCN1S(=O)(=O)c1ccc2nc(Nc3ccccc3)ccc2c1 (stereo not shown) [Compound 10]	> 10000	15000	0.4 (≈ 0.153 µg/mL)	534 ± 25 10^-6 cm/s	80 ± 12	> 10000	> 10000 nM											
CC1CCCCN1S(=O)(=O)c1ccc2nc(Nc3cccc(C#N)c3)ccc2c1 (stereo not shown) [Compound 13]	> 10000	11000	0.9 ± 1.2 (≈ 0.366 µg/mL)	582 ± 205 10^-6 cm/s	93 ± 0.5		30000 nM	320	8	94	330	260	245 ± 67 pmol per 10^7 cells per min	93 ± 53 pmol per 10^7 cells per min	non-competitive inhibitors	94		
COc1cc(Nc2ccc3cc(S(=O)(=O)N4CCCCC4C)ccc3n2)cc(OC)c1OC (stereo not shown) [Compound 1]	~1000	1400	0.5 ± 0.4 (≈ 0.236 µg/mL)	1057 ± 69 10^-6 cm/s	70 ± 2.0		3200 nM and > 3000 nM	39		82	33	23			non-competitive inhibitors	82	280 ± 15 pmol per 10^7 cells per min	131 ± 4 pmol per 10^7 cells per min
CC1CCCCN1S(=O)(=O)c1ccc2nc(Nc3ccc(C#N)cc3)ccc2c1 (stereo not shown) [Compound 12]	> 10000	> 16000		570 ND 10^-6 cm/s	93 ± 3.8		2500 nM	2700								0.92		

From publication PMC4404333, “Identification of Selective Inhibitors of the Plasmodium falciparum Hexose Transporter PfHT by Screening Focused Libraries of Anti-Malarial Compounds” (PLoS ONE, 2015)
